Experimental data reported in US12594307B2, “Compositions and methods of using inducible signaling for tunable dynamics in microbial communities” (priority 2019, dated 2026).
Entries after “also recorded” stand apart in the source; their conditions may differ.

Legend:
[1] = system: iSLC strain; test: iSLC strain population dynamics in microfluidic inducer gradient device; type: cell-based, E. coli
Procedure: (§1) The iSLC and SLC strains were both cultured in lysogeny broth (LB) media with 50 μg mL^−1 kanamycin, 34 μg mL^−1 chloramphenicol and 0.2% glucose for strains containing ColE1 origin and p15A origin plasmids in a 37° C. shaking incubator. Plasmid pTD103 RpaR-RpaI-LAA-sfGFP^21, ptD103-CFP were constructed by as described in previous studies (see, e.g., FIG. 11). Both plasmids pAM014 and pAM021 were obtained by inserting the 4CL2nt gene under the constitutive promoter J23106 from the Anderson promoter library. The 4CL2nt gene and the promoter were synthesized with overlapping PCR of long oligonucleotides (IDT). All plasmids were constructed by Gibson assembly followed by transformation into DH5α (Thermofisher) chemically competent E. coli. All plasmids were verified by Sanger sequencing before transformation into E. coli strain MG1655.
The microscopy and microfluidics techniques used are similar to those previously reported. The microfluidic devices were constructed from PDMS (polydimethylsiloxane), which was molded and baked on a silicon wafer with micronscale features formed by crosslinked photoresist. Once the PDMS hardened, it was peeled off, and individual devices were cut out. In order to connect fluid lines to the device, holes where punched in correspondence of the inlets and outlets of the device. Afterwards, the devices were bonded onto glass slides using plasma activation. […]

[2] = system: iSLC strain; test: iSLC kill switch induction in microfluidic traps; type: cell-based, E. coli; settings: induction with 500 nM pCA after saturation of traps; 406 traps
From the text: (§2) The microscopy and microfluidics techniques used are similar to those previously reported. The microfluidic devices were constructed from PDMS (polydimethylsiloxane), which was molded and baked on a silicon wafer with micronscale features formed by crosslinked photoresist. Once the PDMS hardened, it was peeled off, and individual devices were cut out. In order to connect fluid lines to the device, holes where punched in correspondence of the inlets and outlets of the device. Afterwards, the devices were bonded onto glass slides using plasma activation. Before each experiment, the devices were left for 30 minutes in a vacuum chamber. Meanwhile, 1 mL of overnight cell culture was spun down by centrifugation and re-suspended in 10 μL of fresh media with appropriate antibiotics. […] At 4× magnification fluorescence exposure times were 2 seconds at 30% intensity for both gfp and cfp while at 10× magnification they were 200 us at 30% intensity for both GFP and CFP. […]
(§3) Fluorescence intensity profiles were obtained by analyzing frames from the fluorescent channels. The mean fluorescence values were calculated by drawing a rectangle surrounding each trap individually and extracting the z-axis profile on ImageJ. Fluorescence values shown in FIG. 2 were normalized by dividing all data by a constant factor. […]

[3] = system: iQS strain; test: iQS strain fluorescence response to pCA, microwell plate reader; type: cell-based, Escherichia Coli; settings: FIG. 1D
Procedure: To design an exemplary iQS system, the two-step pathway which converts pCA into p-coumaroyl-HSL (pC-HSL) was genetically reconstructed through the production of the intermediate molecule p-coumaroyl-CoA (FIG. 1A). The first conversion is catalyzed by the p-coumaric acid-CoA ligase encoded by the 4CL2nt gene from the plant Nicotiana tabacum while the second step is catalyzed by the RpaI synthase. Additionally, superfolder green fluorescent protein (sfGFP) was added to be able to monitor the inducible dynamics. […] Escherichia Coli was chosen as the host chassis for the double plasmid circuit. The methods described in Example 1 are also applicable to Examples 2, 3, and 4.
as §1
(§4) For plate reader experiments, the appropriate strains were seeded from a −80° C. glycerol stock into 3 ml LB with 0.2% glucose and appropriate antibiotics and incubated in a 37° C. shaking incubator. The following day, 2 μL of overnight culture were added to 200 μL fresh media containing appropriate antibiotics in a standard Falcon tissue culture 96-well flat bottom plate. Cells were incubated at 37° C. shaking in a Tecan Infinite M200 Pro. Cells were grown for about 12 hours. The optical density at 600 nm absorbance was measured every 10 minutes.

[4] = system: wild type E. Coli strain; test: wild type E. Coli growth curves in a range of p-coumaric acid concentrations (plate reader); type: cell-based; settings: within the characterized concentration range; FIG. 1E
Procedure: as §4

[5] = system: iSLC strain; test: cells survival assay (CFU count) of iSLC strain in liquid culture; type: cell-based, E. coli; settings: 3 mL culture tubes, eight hours; 300 nM, 500 nM, 1 μM; independent of inducer concentration; FIG. 3D
Procedure: Cell viability assays to test the efficacy of iQS as a kill switch were done by measuring colony forming units (CFUs), following a protocol found in the literature. Cells were grown under survival conditions in LB with 0.2% glucose which inhibits the LuxI promoter thanks to the presence of a binding site for the CAP-CAMP activating complex. Following overnight growth, they were transferred into four cultures of fresh LB medium with 0.2% glucose, 300 nM p-coumaric acid, 500 nM p-coumaric acid and 1 μM p-coumaric acid, respectively. Samples were collected every 2 hours and serially diluted in PBS over a 7-log range and spotted (2 μL) onto LB agar plates with 0.2% glucose. The equations used arc: CFU/ml=(number of colonies)×(dilution factor)/0.002 mL, survival ratio (log 10)=log (CFU/ml with glucose)/(CFU/ml with p-coumaric acid).
Experiments were performed to investigate whether inducer concentrations could be modulated during culture to show the culture can switch between states of constant growth (circuit quiescence), synchronized oscillations in population density (cyclic cargo release) and inducible population death (kill switch). To confirm this principle, experiments were performed to test the ability to drive the population dynamics from state one (population growth) to state three (population death) through pCA induction (FIG. 3A). […]

[6] = system: iSLC and SLC strains co-culture; test: co-culture of iSLC and SLC strains under a gradient of inducer concentrations (microfluidics); type: cell-based, E. coli
From the text: as §2, with “antibiotics. After taking the device out of the vacuum chamber, a single droplet of resuspended cells was positioned in correspondence of the outlet opening. Similarly, droplets of sterile fresh media were placed in correspondence of the inlets openings. In all cases, 0.075% Tween20 was added to the medium to prevent cells from sticking to the PDMS walls. After all chip features were wetted, the fluids lines were plugged in and the height of the inlet was raised 10 to 40 cm above the device. The outlet syringe was instead placed at the same height of the device. For co-culturing experiments in FIG. 4, cells were cultured individually overnight and eventually spun down and re-suspended together (1:1 ratio) allowing for a single droplet to be loaded on the device.” for “antibiotics.”
as §3

[7] = system: lux QS system; test: crosstalk of p-coumaric acid with the lux QS system, growth curves (plate reader); type: cell-based, E. coli; settings: range of pCA concentrations; FIG. 9
Procedure: as §4
Experiments were performed to investigate the orthogonal properties of the iQS circuit by co-culturing the iSLC with a non-inducible SLC strain based on the lux QS system, one of the most commonly used and well understood QS systems in synthetic biology (FIG. 4A). […] Next, a previously described microfluidic chip was used (FIG. 2D and FIG. 7) to co-culture the iSLC and SLC strains (starting at 1:1 ratio) under a gradient of inducer concentrations. […] Without inducer, the quiescent iSLC strain was able to displace the SLC strain due to an advantage in population growth rate. At intermediate concentrations (15 nM), stable co-culture of both strains were maintained with independently sustained oscillations for more than 40 hours.

O=C(O)/C=C/c1ccc(O)cc1 [pCA, p-coumaric acid]
fraction of all microfluidics traps able to survive ([1]; high pCA concentrations 110 nM to 1 μM, universal cell lysis): < 3%
average period of sustained synchronized oscillations ([1]; intermediate inducer concentration 15 nM): approximately 200 minutes
microfluidic traps with cell death after synchronized lysis event [2]: more than 97%
iQS circuit behavior at intermediate inducer levels ([3]; 1 nM and 10 nM pCA): population-dependent switch-like behavior
iQS circuit behavior at high inducer concentrations ([3]; 100 nM to 10 μM pCA): linear relationship between fluorescence expression and population density
optical density threshold of steep increase in fluorescence signal ([3]; intermediate levels (1 nM and 10 nM) pCA): around 0.3
toxicity to wild type E. Coli (growth curves) [4]: not toxic
cell survival (CFU) [5]: several order of magnitude decrease
duration of stable co-culture with independently sustained oscillations ([6]; 15 nM, starting 1:1 ratio): more than 40 hours
co-culture outcome at high pCA concentration ([6]; 110 nM, starting 1:1 ratio): death of all iSLC cells
co-culture outcome at inducer values higher than 340 nM ([6]; higher than 340 nM, FIG. 10): iSLC death and SLC takeover
crosstalk with lux QS system / growth curves [7]: absence of crosstalk; also recorded: growth curves are unaffected
